The target of experiment [1] is Gamma-aminobutyric acid receptor subunit alpha-1 (Rattus norvegicus, UniProt P62813).
For another experiment, the target named is Cannabinoid receptor 1 (Homo sapiens, UniProt P21554). It is filed as functional, cell-based.
Experiment [2] deals with T1, Alpha-1A adrenergic receptor (Homo sapiens, UniProt P35348).
T1 sequence (P35348 whole entry): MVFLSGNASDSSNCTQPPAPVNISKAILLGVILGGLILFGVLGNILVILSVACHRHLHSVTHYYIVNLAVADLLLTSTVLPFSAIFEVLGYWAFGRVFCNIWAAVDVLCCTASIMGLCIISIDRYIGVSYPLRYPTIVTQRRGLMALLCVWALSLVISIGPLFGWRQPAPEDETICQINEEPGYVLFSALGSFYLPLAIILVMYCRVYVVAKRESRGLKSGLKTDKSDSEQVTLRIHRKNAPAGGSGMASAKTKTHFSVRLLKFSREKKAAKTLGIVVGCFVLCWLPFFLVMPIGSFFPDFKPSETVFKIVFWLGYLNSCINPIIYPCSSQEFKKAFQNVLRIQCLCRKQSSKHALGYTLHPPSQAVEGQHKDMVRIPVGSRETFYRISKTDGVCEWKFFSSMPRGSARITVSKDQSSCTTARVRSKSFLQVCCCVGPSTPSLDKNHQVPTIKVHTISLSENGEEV
Format: functional, cell-based.

Experiment [3] addresses T2, Alpha-2A adrenergic receptor (Homo sapiens, UniProt P08913).
T2 sequence (P08913 whole entry): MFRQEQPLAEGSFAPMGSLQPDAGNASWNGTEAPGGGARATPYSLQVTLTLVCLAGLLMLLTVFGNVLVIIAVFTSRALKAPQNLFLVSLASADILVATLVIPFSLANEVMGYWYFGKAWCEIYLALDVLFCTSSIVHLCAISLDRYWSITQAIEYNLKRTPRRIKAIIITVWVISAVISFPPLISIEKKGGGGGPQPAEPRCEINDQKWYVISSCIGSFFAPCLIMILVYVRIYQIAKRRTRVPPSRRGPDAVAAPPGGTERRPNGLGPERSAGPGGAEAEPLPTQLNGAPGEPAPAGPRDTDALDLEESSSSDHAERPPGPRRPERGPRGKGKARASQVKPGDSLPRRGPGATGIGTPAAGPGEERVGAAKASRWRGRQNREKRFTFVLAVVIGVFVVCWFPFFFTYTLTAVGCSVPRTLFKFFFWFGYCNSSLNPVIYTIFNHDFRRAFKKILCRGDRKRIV

In another experiment the target is T3, Thromboxane A2 receptor (Homo sapiens, UniProt P21731).
T3 sequence (P21731 whole entry): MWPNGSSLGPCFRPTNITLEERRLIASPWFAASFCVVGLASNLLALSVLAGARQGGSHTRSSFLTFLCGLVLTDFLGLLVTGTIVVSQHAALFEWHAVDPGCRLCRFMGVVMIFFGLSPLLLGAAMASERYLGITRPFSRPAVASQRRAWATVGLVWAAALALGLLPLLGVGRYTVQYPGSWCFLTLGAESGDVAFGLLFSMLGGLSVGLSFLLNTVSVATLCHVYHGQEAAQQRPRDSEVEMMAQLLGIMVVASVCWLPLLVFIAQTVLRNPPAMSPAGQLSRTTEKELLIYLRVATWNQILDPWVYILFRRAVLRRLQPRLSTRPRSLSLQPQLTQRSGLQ
It is filed as functional, cell-based.

In experiment [4] the target is T4, 5-hydroxytryptamine receptor 1A (Homo sapiens, UniProt P08908).
T4 sequence (P08908 whole entry): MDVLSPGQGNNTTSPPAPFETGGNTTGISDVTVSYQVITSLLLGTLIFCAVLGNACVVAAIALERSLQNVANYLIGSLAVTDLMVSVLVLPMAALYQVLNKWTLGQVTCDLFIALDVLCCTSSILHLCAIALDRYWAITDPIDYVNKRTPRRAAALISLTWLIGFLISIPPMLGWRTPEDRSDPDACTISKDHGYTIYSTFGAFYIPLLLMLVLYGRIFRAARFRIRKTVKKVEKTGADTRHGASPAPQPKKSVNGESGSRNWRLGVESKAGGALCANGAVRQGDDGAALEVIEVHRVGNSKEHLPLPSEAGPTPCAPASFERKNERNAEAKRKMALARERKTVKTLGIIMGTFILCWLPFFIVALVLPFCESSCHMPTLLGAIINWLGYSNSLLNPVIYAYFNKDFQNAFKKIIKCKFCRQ

Experiment [5] concerns the target T5, Gastrin/cholecystokinin type B receptor (Homo sapiens, UniProt P32239).
T5 sequence (P32239 whole entry): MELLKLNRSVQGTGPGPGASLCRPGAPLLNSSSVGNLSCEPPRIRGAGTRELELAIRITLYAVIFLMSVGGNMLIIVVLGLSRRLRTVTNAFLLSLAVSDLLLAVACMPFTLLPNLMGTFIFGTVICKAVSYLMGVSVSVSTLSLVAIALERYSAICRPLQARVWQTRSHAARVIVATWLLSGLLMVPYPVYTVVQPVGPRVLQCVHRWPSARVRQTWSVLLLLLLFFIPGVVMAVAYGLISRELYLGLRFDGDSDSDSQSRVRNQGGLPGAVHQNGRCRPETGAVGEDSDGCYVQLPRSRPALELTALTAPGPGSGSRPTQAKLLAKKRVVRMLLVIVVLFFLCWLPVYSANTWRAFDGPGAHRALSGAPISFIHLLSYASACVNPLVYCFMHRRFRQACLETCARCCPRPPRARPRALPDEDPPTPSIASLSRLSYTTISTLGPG

The target in the next experiment is Vasopressin V2 receptor (Homo sapiens, UniProt P30518).
Experiment [6] deals with T6, Muscarinic acetylcholine receptor M2 (Homo sapiens, UniProt P08172).
T6 sequence (P08172 whole entry): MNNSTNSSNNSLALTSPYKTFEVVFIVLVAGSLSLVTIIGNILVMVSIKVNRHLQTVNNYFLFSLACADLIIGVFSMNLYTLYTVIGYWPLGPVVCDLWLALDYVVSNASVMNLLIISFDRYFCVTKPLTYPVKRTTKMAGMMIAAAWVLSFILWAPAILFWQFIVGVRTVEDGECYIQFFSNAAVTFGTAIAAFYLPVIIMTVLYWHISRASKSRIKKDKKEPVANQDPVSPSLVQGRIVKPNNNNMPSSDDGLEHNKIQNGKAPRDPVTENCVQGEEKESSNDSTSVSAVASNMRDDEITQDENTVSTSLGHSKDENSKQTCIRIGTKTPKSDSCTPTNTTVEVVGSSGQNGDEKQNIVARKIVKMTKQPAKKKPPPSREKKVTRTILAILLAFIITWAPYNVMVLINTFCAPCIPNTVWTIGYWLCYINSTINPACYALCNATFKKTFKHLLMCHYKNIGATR
Also: assay procedure not described here.

Chain of Gamma-aminobutyric acid receptor subunit alpha-1 (P62813 whole entry): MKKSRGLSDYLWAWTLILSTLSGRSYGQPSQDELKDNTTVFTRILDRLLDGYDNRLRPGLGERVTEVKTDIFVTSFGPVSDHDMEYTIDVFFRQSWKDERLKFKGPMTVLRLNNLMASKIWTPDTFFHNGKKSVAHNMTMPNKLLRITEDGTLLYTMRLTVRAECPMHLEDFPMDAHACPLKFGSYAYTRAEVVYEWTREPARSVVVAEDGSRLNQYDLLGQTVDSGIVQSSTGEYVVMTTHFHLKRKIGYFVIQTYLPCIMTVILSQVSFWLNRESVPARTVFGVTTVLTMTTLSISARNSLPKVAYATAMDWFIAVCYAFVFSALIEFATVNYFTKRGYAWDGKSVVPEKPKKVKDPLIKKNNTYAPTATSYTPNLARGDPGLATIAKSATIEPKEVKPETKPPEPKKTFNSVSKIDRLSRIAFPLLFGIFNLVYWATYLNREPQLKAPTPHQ
Chain of Vasopressin V2 receptor (P30518 whole entry): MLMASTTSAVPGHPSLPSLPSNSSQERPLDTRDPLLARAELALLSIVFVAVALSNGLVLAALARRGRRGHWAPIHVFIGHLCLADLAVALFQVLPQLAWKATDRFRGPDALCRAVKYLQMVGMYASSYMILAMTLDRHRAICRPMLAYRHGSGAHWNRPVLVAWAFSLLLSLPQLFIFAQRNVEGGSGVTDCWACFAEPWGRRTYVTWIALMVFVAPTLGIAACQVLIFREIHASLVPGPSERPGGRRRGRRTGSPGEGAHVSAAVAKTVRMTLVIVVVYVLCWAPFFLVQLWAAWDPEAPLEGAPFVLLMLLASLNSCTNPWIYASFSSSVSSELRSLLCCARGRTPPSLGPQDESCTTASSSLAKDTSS
Chain of Cannabinoid receptor 1 (P21554 whole entry): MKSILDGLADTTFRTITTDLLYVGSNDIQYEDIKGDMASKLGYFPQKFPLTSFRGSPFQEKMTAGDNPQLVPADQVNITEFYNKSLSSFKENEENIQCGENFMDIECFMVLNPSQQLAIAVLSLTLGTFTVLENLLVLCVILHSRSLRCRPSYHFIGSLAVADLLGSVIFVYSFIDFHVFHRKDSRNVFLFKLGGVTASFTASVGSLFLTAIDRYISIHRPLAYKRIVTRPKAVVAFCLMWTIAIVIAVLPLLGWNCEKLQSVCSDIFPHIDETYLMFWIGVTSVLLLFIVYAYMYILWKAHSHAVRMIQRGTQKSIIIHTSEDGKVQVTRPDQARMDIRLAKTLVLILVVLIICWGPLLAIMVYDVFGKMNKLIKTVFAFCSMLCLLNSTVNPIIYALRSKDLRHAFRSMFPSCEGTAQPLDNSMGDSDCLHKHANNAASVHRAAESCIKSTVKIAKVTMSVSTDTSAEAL

A word on the AC50: it is the midpoint of the concentration-response curve, whichever way the signal moves. `CCOC(=O)[C@H](CCc1ccccc1)N[C@@H](C)C(=O)N1Cc2ccccc2C[C@H]1C(=O)O`: the AC50 was > 10 µM in [1]; > 30 µM at Cannabinoid receptor 1; > 30 µM in experiment [2]; > 30 µM in experiment [3]; > 30 µM on Thromboxane A2 receptor; > 30 µM in experiment [4]. In addition, the half-maximal activity concentration (AC50) (in experiment [5]; on Vasopressin V2 receptor; in experiment [6]) was > 30 µM each time.
With `O=C(O)COC(=O)Cc1ccccc1Nc1c(Cl)cccc1Cl` [ACECLOFENAC], the concentration at half-maximal activity (AC50) was > 10 µM in experiment [1], > 30 µM at Cannabinoid receptor 1, > 30 µM in experiment [5] and > 30 µM on Vasopressin V2 receptor.
Turning to `NCCCNCCSP(=O)(O)O` [AMIFOSTINE], the AC50 (in [1]; on Cannabinoid receptor 1; in experiment [5]; on Vasopressin V2 receptor) was > 30 µM in each case.
`CN(C)CCC=C1c2ccccc2CCc2ccccc21` [AMITRIPTYLINE]: the AC50 is > 10 µM in experiment [1]; > 30 µM at Cannabinoid receptor 1; > 30 µM in experiment [2]; 1.27 µM in experiment [3]; > 30 µM at Thromboxane A2 receptor; 0.337 µM in [4]. The AC50 (in [5]; at Vasopressin V2 receptor) was > 30 µM throughout.
For the compound `CC(=O)Oc1ccccc1C(=O)O` [ASPIRIN], the AC50 in [1] is > 10 µM; at Cannabinoid receptor 1, > 30 µM; in experiment [2], > 30 µM; in [3], > 30 µM; on Thromboxane A2 receptor it was > 30 µM; in experiment [4] it was > 30 µM. In addition, the AC50 (in experiment [5]; on Vasopressin V2 receptor; in experiment [6]) was > 30 µM throughout.
In the case of `CC(C)NCC(O)COc1ccc(CC(N)=O)cc1` (stereo not drawn) [ATENOLOL], the AC50 (in experiment [5]; on Vasopressin V2 receptor) was > 30 µM each time.
Regarding `C[C@H](CS)C(=O)N1CCC[C@H]1C(=O)O` [CAPTOPRIL], the concentration at half-maximal activity (AC50) was > 10 µM in experiment [1], > 30 µM in experiment [5] and > 30 µM at Vasopressin V2 receptor.
For the compound `CN(C)CCCC1(c2ccc(F)cc2)OCc2cc(C#N)ccc21` (stereo not drawn) [CITALOPRAM], the AC50 in experiment [1] is > 10 µM; at Cannabinoid receptor 1, > 30 µM; in experiment [3], > 30 µM; at Thromboxane A2 receptor, > 30 µM; in experiment [5] it was > 30 µM; at Vasopressin V2 receptor, > 30 µM.
Take `COC(=O)CCc1ccc(OCC(O)CNC(C)C)cc1` (stereo not drawn) [ESMOLOL]: the AC50 (in experiment [1]; in experiment [5]; on Vasopressin V2 receptor) was > 30 µM in each case.
For the compound `O=c1[nH]cc(F)c(=O)[nH]1` [FLUOROURACIL], the half-maximal activity concentration (AC50) (in experiment [2]; in experiment [3]; at Thromboxane A2 receptor; in [4]; in experiment [5]; at Vasopressin V2 receptor) was > 30 µM in each case. Further, in [6], the AC50 was > 30 µM.
As for `Nc1nnc(-c2cccc(Cl)c2Cl)c(N)n1` [LAMOTRIGINE], the concentration at half-maximal activity (AC50) in [1] is > 10 µM; at Cannabinoid receptor 1 it was > 30 µM; in experiment [5], > 30 µM; on Vasopressin V2 receptor it was > 30 µM.
In the case of `CC(=O)NC[C@H]1CN(c2ccc(N3CCOCC3)c(F)c2)C(=O)O1` [LINEZOLID], the AC50 (in [1]; at Cannabinoid receptor 1; in experiment [5]; on Vasopressin V2 receptor) was > 30 µM throughout.
Consider `CCCCCCCC/C=C\CCCCCCCC(=O)O` [OLEIC ACID], for which the AC50 (in experiment [2]; in experiment [3]; on Thromboxane A2 receptor; in [4]; in experiment [6]) was > 30 µM in each case.
In the case of `CC1=C(C/C=C(\C)CCC[C@H](C)CCC[C@H](C)CCCC(C)C)C(=O)c2ccccc2C1=O` [PHYTONADIONE], the AC50 (in experiment [2]; in experiment [3]; on Thromboxane A2 receptor; in experiment [4]; in experiment [6]) was > 30 µM each time.
On to `NC(=O)C1(N2CCCCC2)CCN(CCCC(=O)c2ccc(F)cc2)CC1` [PIPAMPERONE], for which the AC50 in [2] was > 30 µM; in experiment [3] it was 5.47 µM; at Thromboxane A2 receptor, > 30 µM; in [4] it was 11.5 µM; in experiment [6], > 30 µM.
Regarding `COc1cccc2c1C(=O)c1c(O)c3c(c(O)c1C2=O)C[C@@](O)(C(=O)CO)C[C@@H]3O[C@H]1C[C@H](N)[C@H](O[C@@H]2CCCCO2)[C@H](C)O1` [PIRARUBICIN], the AC50 was > 1 µM in experiment [2]; > 30 µM in experiment [3]; > 1 µM on Thromboxane A2 receptor; > 30 µM in experiment [4]; > 30 µM in [6].
As to `CC(C)(Oc1ccc(Cl)cc1)C(=O)NC(=O)NCN1CCOCC1` [PLAFIBRIDE], the AC50 (in experiment [2]; in experiment [3]; on Thromboxane A2 receptor; in experiment [4]; in experiment [6]) was > 30 µM in each case.
As for `CC(C)NC[C@H](O)COc1ccc(O)cc1` [PRENALTEROL], the AC50 (in experiment [2]; in [3]; on Thromboxane A2 receptor; in experiment [4]; in [6]) was > 30 µM in each case.
On to `CN1CCC(N(Cc2cccs2)c2ccccc2)CC1` [THENALIDINE], for which the half-maximal activity concentration (AC50) is > 30 µM in experiment [2]; 8.45 µM in [3]; > 30 µM on Thromboxane A2 receptor; 8.65 µM in [4]; 0.699 µM in experiment [6].
As to `Cc1ccc(C(C)C)c(O)c1` [THYMOL], the AC50 (in experiment [2]; in [3]; on Thromboxane A2 receptor; in [4]; in experiment [6]) was > 30 µM in each case.
As to `Cc1cccc(C)c1NC(=O)c1cc(S(N)(=O)=O)c(Cl)cc1O` [XIPAMIDE], the AC50 (in [2]; in experiment [3]; at Thromboxane A2 receptor; in experiment [4]; in experiment [6]) was > 30 µM throughout.

The values above are taken from ChEMBL document CHEMBL5291721, “A preclinical secondary pharmacology resource illuminates target-adverse drug reaction associations of marketed drugs” (Nat Commun, 2023).
